Source: PubChem BioAssay (NCI)
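Method: 48-hour compound exposure of cells in 96-well plates, five concentrations, linear interpolation of endpoints. Here, GI50 denotes the concentration required for 50% inhibition of growth. At the TGI there is no net growth.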

How the values were obtained:
Assay in all cases: growth of human tumour cells (NCI), 48 h
DMS 114 small cell lung = tested on: DMS 114 small cell lung
SK-MEL-28 melanoma = tested on: SK-MEL-28 melanoma
SNB-78 CNS = tested on: SNB-78 CNS
DLD-1 colon = tested on: DLD-1 colon
A498 renal = tested on: A498 renal
M19-MEL melanoma = tested on: M19-MEL melanoma
BT-549 breast = tested on: BT-549 breast
MDA-MB-435 = tested on: MDA-MB-435
MDA-MB-231 breast = tested on: MDA-MB-231 breast
NCI-H23 lung = tested on: NCI-H23 lung
T-47D breast = tested on: T-47D breast
KM20L2 colon = tested on: KM20L2 colon
XF 498 CNS = tested on: XF 498 CNS

Structure (SMILES)	TGI (DMS 114 small cell lung) [µM]	TGI (SK-MEL-28 melanoma)	TGI (SNB-78 CNS) [µM]	TGI (DLD-1 colon) [µM]	TGI (A498 renal)	TGI (M19-MEL melanoma) [µM]	TGI (BT-549 breast)	TGI (MDA-MB-435)	TGI (MDA-MB-231 breast)	TGI (NCI-H23 lung)	TGI (T-47D breast)	GI50 (BT-549 breast)	GI50 (MDA-MB-435)	GI50 (MDA-MB-231 breast)	GI50 (SK-MEL-28 melanoma)	GI50 (NCI-H23 lung)	GI50 (A498 renal)	GI50 (T-47D breast)	TGI (KM20L2 colon) [µM]	TGI (XF 498 CNS) [µM]
CC1=CCC[C@@]2(C)C(CC[C@@H]2C(C)/C=C/C(C)C)c2ccc(cc2C(=O)O)C[C@@H](O)CC1 (some centres undefined)	40.3	28.4 µM	34.5	14	35.3 µM	29.6														
COc1cc2c(cc1OC)C13CCN4C=C5CCOC6CC(=O)N2C1C6C5CC43 (centres undefined)		> 100 µM			> 100 µM		> 100 µM	> 100 µM	> 100 µM	> 100 µM	> 100 µM									
O=P([O-])(O)OP(=O)([O-])O.[NH-][C@H]1CCCC[C@@H]1[NH-].[OH-].[OH-].[Pt+4]		> 100 µM			39.9 µM		47.9 µM	> 100 µM	57.2 µM	46.1 µM	61.4 µM	24.3 µM	31.2 µM	25 µM	31.5 µM	20.8 µM	21.1 µM	25 µM		
Cc1ccccc1NC(=S)Nc1ccccn1		> 100 µM			> 100 µM		> 100 µM	> 100 µM	> 100 µM	> 100 µM	> 100 µM	> 100 µM	> 100 µM	89.7 µM	> 100 µM	85.3 µM	> 100 µM	55.7 µM		
C=C1C(=O)O[C@H]2[C@H]1CC/C(CNC(=O)/C=C/c1ccc(Br)cc1)=C\CC[C@@]1(C)O[C@@H]21		2.7 µM			2.45 µM		2.95 µM	2.07 µM	2.94 µM	3.05 µM	4.73 µM	1.14 µM	0.632 µM	1.41 µM	1.34 µM	1.41 µM	0.236 µM	1.74 µM		
Cn1cc(-c2nonc2-c2c[nH]c3ccccc23)c2ccccc21		18.1 µM			2.11 µM		7.78 µM	0.494 µM	3.23 µM	19.5 µM	28.5 µM	0.588 µM	0.182 µM	0.489 µM	1.45 µM	0.85 µM	0.435 µM	0.464 µM		
O=C(Nc1c(O)[nH]c(=S)[nH]c1=O)c1ccccn1	> 100	> 100 µM	> 100	> 100	> 100 µM	> 100				> 100 µM									> 100	
COc1cccc2c1C(=O)c1c(O)c3c(c(O)c1C2=O)CC(O)(C(C)=O)CC3OC1CC(N)C(O)C(C)O1 (centres undefined)		0.607 µg/mL			0.39 µg/mL		0.459 µg/mL	0.33 µg/mL	0.59 µg/mL	0.692 µg/mL	0.216 µg/mL	0.0458 µg/mL	0.0894 µg/mL	0.0409 µg/mL	0.104 µg/mL	0.0174 µg/mL	0.0558 µg/mL	0.0185 µg/mL		
C=C(Cn1c(=O)c2ccccc2c2ccccc21)c1ccc(C(=O)Nc2ccccc2N)cc1		> 100 µM			> 100 µM		97.7 µM	> 100 µM	> 27.8 µM	> 100 µM	> 69.3 µM	14.8 µM	24.2 µM	1.75 µM	> 37.8 µM	30.3 µM	30.6 µM	3.86 µM		
COc1ccc(C#Cc2ccccc2C#CCCCCO)cc1		24.8 µM			66.4 µM		46.1 µM	38.9 µM	32.2 µM	40.5 µM	43.8 µM	21.1 µM	21.1 µM	17.3 µM	12.2 µM	19.2 µM	24.1 µM	22 µM		
CC1CC2C3CC(F)C4=CC(=O)C=CC4(C)C3(F)C(O)CC2(C)C1(O)C(=O)COC(=O)C(C)(C)C (centres undefined)	> 100	> 100 µM	> 100	> 100		> 100				> 100 µM									> 100	> 100
CN(C)CCCOc1ccccc1NC1=C(Cl)C(=O)C(Nc2ccccc2OCCCN(C)C)=C(Cl)C1=O		3.13 µM			5.6 µM		2.99 µM	1.44 µM	1.4 µM	1.38 µM	0.591 µM	1.62 µM	0.636 µM	0.511 µM	1.72 µM	0.57 µM	1.84 µM	0.209 µM		
CCN(CC)CCNC(=O)c1ccccc1NC(=O)C(=O)Nc1ccccc1C(=O)NCCN(CC)CC	79.7	> 100 µM	> 100	> 100	> 100 µM	57.5				> 100 µM									> 100	
O=C1c2ccccc2C2(O)Nc3cc(O)ccc3C12O (centres undefined)	> 100	> 100 µM	> 100	> 100	> 100 µM					> 100 µM									> 100	
O=[N+]([O-])c1ccc(Nc2ccccc2-c2ccccc2)c2nonc12		45.3 µM			41.6 µM		28.8 µM	45.9 µM	31.2 µM	26.1 µM	> 100 µM	11.5 µM	13.9 µM	14.5 µM	17.2 µM	8.63 µM	14.8 µM	10.5 µM		
COC1=CC(c2ccc[nH]2)=N/C1=C\c1[nH]c(C)c(C(=O)OCc2ccccc2)c1C		1.71 µM			1.02 µM		3.46 µM	1.31 µM	0.325 µM	1.74 µM	1.6 µM	0.253 µM	0.0557 µM	0.0379 µM	0.353 µM	0.141 µM	0.169 µM	0.252 µM		
OCCOc1ccc(-c2cc(-c3ccccn3)nc(-c3ccccn3)c2)cc1	1.93	> 100 µM	> 100	> 100	17 µM	0.593	> 100 µM	> 100 µM	> 40.2 µM	> 100 µM	> 100 µM								> 41.8	
CC(=O)OCC1OC(Nc2[nH]c(=O)n(C)c(=O)c2-c2csc(N)n2)C(OC(C)=O)C(OC(C)=O)C1OC(C)=O (centres undefined)	> 100	> 100 µM	> 100	> 100	> 100 µM	> 100				> 100 µM									> 100	
